Tests used:
[1] = biological target: T1, Thymidine phosphorylase (Homo sapiens) (UniProt P19971); assay: Inhibitory activity (134 uM) against Escherichia coli thymidine phosphorylase
T1 sequence (whole entry): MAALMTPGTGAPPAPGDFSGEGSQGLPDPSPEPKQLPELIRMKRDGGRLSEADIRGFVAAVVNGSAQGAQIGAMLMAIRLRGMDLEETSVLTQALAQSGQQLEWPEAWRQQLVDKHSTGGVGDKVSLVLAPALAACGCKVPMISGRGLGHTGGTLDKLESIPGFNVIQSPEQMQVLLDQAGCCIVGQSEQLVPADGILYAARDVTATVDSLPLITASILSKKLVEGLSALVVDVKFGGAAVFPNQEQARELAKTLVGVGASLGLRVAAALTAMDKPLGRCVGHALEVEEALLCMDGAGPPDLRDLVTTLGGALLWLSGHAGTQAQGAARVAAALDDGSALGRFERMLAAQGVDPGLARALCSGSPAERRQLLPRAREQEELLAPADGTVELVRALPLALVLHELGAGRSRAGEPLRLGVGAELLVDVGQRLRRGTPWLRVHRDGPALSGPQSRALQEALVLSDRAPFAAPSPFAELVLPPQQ

[2] = biological target: Thymidine phosphorylase (Escherichia coli) (UniProt P07650); assay: Inhibitory activity (105 uM) against Escherichia coli thymidine phosphorylase
Chain of Thymidine phosphorylase (Escherichia coli) (P07650 whole entry, looked up): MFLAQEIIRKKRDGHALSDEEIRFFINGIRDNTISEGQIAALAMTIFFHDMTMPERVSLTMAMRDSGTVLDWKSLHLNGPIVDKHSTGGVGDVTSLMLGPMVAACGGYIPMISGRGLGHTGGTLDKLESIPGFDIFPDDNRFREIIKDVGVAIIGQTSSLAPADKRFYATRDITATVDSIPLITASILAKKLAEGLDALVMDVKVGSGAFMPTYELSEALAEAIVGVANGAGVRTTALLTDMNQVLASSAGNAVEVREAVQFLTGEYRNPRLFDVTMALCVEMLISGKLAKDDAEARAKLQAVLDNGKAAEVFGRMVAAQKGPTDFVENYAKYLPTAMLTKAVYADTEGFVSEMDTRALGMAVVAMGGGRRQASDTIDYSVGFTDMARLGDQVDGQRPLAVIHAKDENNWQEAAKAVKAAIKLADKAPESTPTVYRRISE

SMILES | inhibition [1] | inhibition [2]
C=CCN/C(S)=N/C=C1C(=O)NC(=O)NC1=O | 60% | 
CCCCC1(/C=N/N=C(/N)S)NC(=O)NC1=O (configuration not stated) |  | 23%
